Several values for one entry are separate records, joined by “and”; a condition that tells them apart may be missing. Identical values can stand only once.
Assay: not given
Settings: spectral region about 640 to about 940 nanometers; cited from earlier work

Row | Compound | wavelength of light absorbed
1 | Pd(II)-octabutoxyphthalocyanine | 732 nm and 838 nm
2 | 5,15-etiobacteriopurpurin | 768 nm and 843 nm
3 | Si(IV)-napthalocyanine | 773 nm

Assay: Absorption peaks of photosensitizers
Assay type: physicochemical
Settings: relevant absorption peaks, Table 1
Excerpt: FIG. 1 is a graph showing the absorption bands of protoporphyrin IX, which is produced as a result of 5-aminolevulinic acid metabolism in a mammal. Protoporphyrin IX has an absorption band located in the blue spectral region (the 410 nanometer Soret band) and other weaker absorption bands in the 500 to 650 nanometer visible region, namely at about 506 nanometers, 546 nanometers, and 578 nanometers. […] Table 1 lists several photosensitizers useful in the practice of the invention, and identifies relevant absorption peaks for each of the listed photosensitizers. While the 460 nanometer to 620 nanometer wavelength range includes the relatively strong absorption peaks of oxyhemoglobin and deoxyhemoglobin, these blood components have other absorption peaks (although of lower relative maxima) at longer wavelengths. For example, deoxyhemoglobin has a weaker absorption peak at about 757 nanometers, and oxyhemoglobin has a weaker absorption peak at about 920 nanometers. Pulsed light sources in the red and near infrared (up to approximately 940 nanometers), for example, the flash lamp pumped alexandrite laser (755 nanometer), or semiconductor diode lasers, for example, gallium arsenide laser (810 nanometer) are capable of selective photothermolysis of blood vessels, including the microvessels in psoriatic lesions. Accordingly, under certain circumstances, it may be advantageous to use a source of pulsed or scanned irradiation having a wavelength in the range from about 640 nanometers to about 940 nanometers to perform combined selective photothermolysis of blood vessels and photodynamic therapy (using the appropriate photosensitizer) in the target region. Useful photosensitizers that absorb light in this spectral region include, for example, Pd(II)-octabutoxyphthalocyanine (732 nm, 838 nm), Si(IV)-napthalocyanine (773 nm)(Jori (1996) J. PHOTOCHEM. PHOTOBIOL. B 87-93), and 5,15-etiobacteriopurpurin (768 nm, 843 nm) (U.S. Pat. No. 6,376,483 B1).

Row | Compound | Wavelength of absorption peaks
4 | benzoporphyrin derivative mono-acid | ˜585 nm
5 | O=C([O-])c1c(Cl)c(Cl)c(Cl)c(Cl)c1-c1c2cc(I)c(=O)c(I)c-2oc2c(I)c([O-])c(I)cc12.[Na+].[Na+] [rose bengal] | 548 nm
6 | nickel 5,10-bis-acrylate etioporphyrin I | 580 nm

Source: patent US20040048842A1, “Method of treating skin disorders” (priority 2002, published 2004)
